From patent publication US20220128542A1, “TREATMENT EFFICIENCY EVALUATION” (TX MEDIC AB, priority 2019, published 2022)
Marks after values point to notes of the source that are not given here.

System: brain of rats subjected to severe traumatic brain injury (sTBI)
Test: HPLC of purine-pyrimidine metabolites (energy state, oxidative/nitrosative stress) in brain after sTBI (Example 1)
Assay type: in vivo, rat
Details: sacrifice day 7
Experimental: They were divided into three groups:
1) n=6 animals subjected to sTBI, with drug administration after 30 minutes and sacrifice at 2 days post-TBI (Acute phase 1)
2) n=6 animals subjected to sTBI, with drug administration after 30 minutes and sacrifice at 7 days post-TBI (Acute phase 2).
3) n=6 animals subjected to sTBI, with drug administration after 3 days and sacrifice at 7 days post-TBI (Chronic phase).
The drug treatment was a subcutaneous injection of 0.5 ml of LMW-DS (15 mg/kg) and administered according to the aforementioned schematic protocol.
After the wet weight (w.w.) determination, tissue preparation was affected as previously disclosed (Tavazzi et al., Neurosurgery. 2005; 56: 582-589; Vagnozzi et al., Neurosurgery. 2007; 61: 379-388; Tavazzi et al., Neurosurgery. 2007; 61: 390-395; Amorini et al., J Cell Mol Med. 2017; 21: 530-542.). Briefly, whole brain homogenization was performed with 7 ml of ice-cold, nitrogen-saturated, precipitating solution composed by CH3CN+10 mM KH2PO4, pH 7.40, (3:1; v:v), and using an Ultra-Turrax set at 24,000 rpm/min (Janke & Kunkel, Staufen, Germany). After centrifugation at 20,690×g, for 10 min at 4° C., the clear supernatants were saved, pellets were supplemented with 3 ml of the precipitating solution and homogenized again as described above. A second centrifugation was performed (20,690×g, for 10 min at 4° C.), pellets were saved, supernatants combined with those previously obtained, extracted by vigorous agitation with a double volume of HPLC-grade CHCl3 and centrifuged as above. The upper aqueous phases containing water-soluble low-molecular weight compounds were collected, subjected to chloroform washings for two more times (this procedure allowed the removal of all the organic solvent and of any lipid soluble compound from the buffered tissue extracts), adjusted in volumes with 10 mM KH2PO4, pH 7.40, to have ultimately aqueous 10% tissue homogenates and saved at −80° C. until assayed.
Aliquots of each deproteinized tissue samples were filtered through a 0.45 μm HV Millipore filter and loaded (200 μl) onto a Hypersil C-18, 250×4.6 mm, 5 μm particle size column, provided with its own guard column (Thermo Fisher Scientific, Rodano, Milan, Italy) and connected to an HPLC apparatus consisting of a Surveyor System (Thermo Fisher Scientific, Rodano, Milan, Italy) with a highly sensitive diode array detector (equipped with a 5 cm light path flow cell) and set up between 200 and 300 nm wavelength. Data acquisition and analysis were performed by a PC using the ChromQuest® software package provided by the HPLC manufacturer.
Metabolites belonging to the purine-pyrimidine profiles (listed below) and related to tissue energy state, mitochondrial function and relative to oxidative-nitrosative stresses were separated, in a single chromatographic run, according to slight modifications of existing ion-pairing HPLC methods (Lazzarino et al., Anal Biochem. 2003; 322: 51-59; Tavazzi et al., Clin Biochem. 2005; 38: 997-1008). Assignment and calculation of the compounds of interest in chromatographic runs of tissue extracts were carried out at the proper wavelengths (206, 234 and 260 nm) by comparing retention times, absorption spectra and areas of peaks with those of peaks of chromatographic runs of freshly-prepared ultra-pure standard mixtures with known concentrations. […]

[1] = Acute phase 2: 15 mg/kg s.c. 30 min post-sTBI
[2] = Chronic phase: 15 mg/kg s.c. 3 days post-sTBI

sodium salt of dextran sulfate [LMW-DS]
NO2 brain concentration [1]: 226.40 ± 30.95^b nmol/g (w.w.) | NO3 brain concentration [1]: 198.56 ± 25.93^e, i nmol/g (w.w.) | UDP brain concentration [1]: 40.38 ± 8.50^a, i nmol/g (w.w.) | UDP-Gal brain concentration [1]: 145.14 ± 27.76 nmol/g (w.w.) | UDP-GalNac brain concentration [1]: 19.90 ± 3.12^a, e nmol/g (w.w.) | UDP-Glc brain concentration [1]: 44.44 ± 7.59^j nmol/g (w.w.) | UDP-GlcNac brain concentration [1]: 130.65 ± 28.41^a nmol/g (w.w.) | UMP brain concentration [1]: 138.73 ± 32.01^b nmol/g (w.w.) | UTP brain concentration [1]: 146.71 ± 32.68^e nmol/g (w.w.) | acetyl-CoA brain concentration [1]: 36.86 ± 4.11^e nmol/g (w.w.) | adenine brain concentration [1]: 58.16 ± 6.36^a, f nmol/g (w.w.) | ascorbic acid brain concentration [1]: 3512.58 ± 224.62^a, e nmol/g (w.w.) | creatinine brain concentration [1]: 37.27 ± 5.82^a, e, j nmol/g (w.w.) | cytidine brain concentration [1]: 16.18 ± 4.21^e nmol/g (w.w.) | cytosine brain concentration [1]: 15.70 ± 4.10^f nmol/g (w.w.) | guanine brain concentration [1]: 4.73 ± 1.07 nmol/g (w.w.) | guanosine brain concentration [1]: 17.90 ± 3.24^j nmol/g (w.w.) | hypoxanthine brain concentration [1]: 12.90 ± 2.58^a, j nmol/g (w.w.) | inosine brain concentration [1]: 85.52 ± 20.36^e nmol/g (w.w.) | malonyl-CoA brain concentration [1]: 11.29 ± 2.27^b nmol/g (w.w.) | orotic acid brain concentration [1]: 13.34 ± 3.65^a nmol/g (w.w.) | thymidine brain concentration [1]: 0.49 ± 0.20^f nmol/g (w.w.) | uracil brain concentration [1]: 19.40 ± 7.52^a, e nmol/g (w.w.) | uric acid brain concentration [1]: 19.17 ± 2.15^a, h, i nmol/g (w.w.) | uridine brain concentration [1]: 63.02 ± 9.66^b, e nmol/g (w.w.) | xanthine brain concentration [1]: 10.41 ± 2.11^f nmol/g (w.w.) | β-pseudouridine brain concentration [1]: 13.26 ± 3.16^a, e, j nmol/g (w.w.) | ADO brain concentration [2]: 89.97 ± 12.98^a nmol/g (w.w.) | ADP brain concentration [2]: 315.53 ± 46.53^a nmol/g (w.w.) | ADP-ribose brain concentration [2]: 173.94 ± 8.45^a nmol/g (w.w.) | AMP brain concentration [2]: 90.01 ± 21.24^a nmol/g (w.w.) | ATP brain concentration [2]: 1381.03 ± 212.64^a nmol/g (w.w.) | CDP brain concentration [2]: 23.55 ± 6.45^a nmol/g (w.w.) | CDP choline brain concentration [2]: 8.37 ± 2.19 nmol/g (w.w.) | CMP brain concentration [2]: 20.51 ± 3.73^a, f nmol/g (w.w.) | CTP brain concentration [2]: 25.23 ± 2.93^a, f nmol/g (w.w.) | CoA-SH brain concentration [2]: 27.58 ± 6.24^f nmol/g (w.w.) | GDP brain concentration [2]: 173.05 ± 28.68^a, e nmol/g (w.w.) | GDP glucose brain concentration [2]: 43.85 ± 5.06^b nmol/g (w.w.) | GMP brain concentration [2]: 148.56 ± 31.21^a nmol/g (w.w.) | GSH brain concentration [2]: 2608.67 ± 358.07^a, e nmol/g (w.w.) | GSSG brain concentration [2]: 231.08 ± 44.34^b, f nmol/g (w.w.) | GTP brain concentration [2]: 290.92 ± 34.68^a, f nmol/g (w.w.) | IMP brain concentration [2]: 99.29 ± 13.82^a nmol/g (w.w.) | MDA brain concentration [2]: 11.62 ± 3.90^a, e nmol/g (w.w.) | NAA brain concentration [2]: 6375.36 ± 974.12^a, e nmol/g (w.w.) | NADH brain concentration [2]: 11.78 ± 3.32^e nmol/g (w.w.) | NADPH brain concentration [2]: 7.34 ± 2.65^f nmol/g (w.w.) | NADP^+ brain concentration [2]: 16.44 ± 2.66^a, f nmol/g (w.w.) | NAD^+ brain concentration [2]: 301.13 ± 29.90^a nmol/g (w.w.) | NO2 brain concentration [2]: 217.67 ± 55.04^a nmol/g (w.w.) | NO3 brain concentration [2]: 241.27 ± 18.84^e nmol/g (w.w.) | UDP brain concentration [2]: 57.40 ± 5.88^a, f nmol/g (w.w.) | UDP-Gal brain concentration [2]: 122.29 ± 12.15 nmol/g (w.w.) | UDP-GalNac brain concentration [2]: 21.84 ± 2.80^a, e nmol/g (w.w.) | UDP-Glc brain concentration [2]: 35.79 ± 3.45^b nmol/g (w.w.) | UDP-GlcNac brain concentration [2]: 129.42 ± 15.88^b nmol/g (w.w.) | UMP brain concentration [2]: 103.11 ± 29.79 nmol/g (w.w.) | UTP brain concentration [2]: 136.80 ± 33.25^f nmol/g (w.w.) | acetyl-CoA brain concentration [2]: 35.68 ± 6.55^e nmol/g (w.w.) | adenine brain concentration [2]: 52.94 ± 8.59^a, f nmol/g (w.w.) | ascorbic acid brain concentration [2]: 3375.03 ± 856.41^a, e nmol/g (w.w.) | creatinine brain concentration [2]: 51.25 ± 10.17^a, f nmol/g (w.w.) | cytidine brain concentration [2]: 14.71 ± 2.83^e nmol/g (w.w.) | cytosine brain concentration [2]: 15.58 ± 2.50^b, f nmol/g (w.w.) | guanine brain concentration [2]: 5.31 ± 1.04^b nmol/g (w.w.) | guanosine brain concentration [2]: 28.87 ± 7.60^a, f nmol/g (w.w.) | hypoxanthine brain concentration [2]: 17.97 ± 4.49^a nmol/g (w.w.) | inosine brain concentration [2]: 105.81 ± 25.57^f nmol/g (w.w.) | malonyl-CoA brain concentration [2]: 10.00 ± 1.95^b nmol/g (w.w.) | orotic acid brain concentration [2]: 12.05 ± 1.50^a nmol/g (w.w.) | thymidine brain concentration [2]: 0.71 ± 0.11 nmol/g (w.w.) | uracil brain concentration [2]: 16.57 ± 2.99^a, f nmol/g (w.w.) | uric acid brain concentration [2]: 27.77 ± 3.60^a nmol/g (w.w.) | uridine brain concentration [2]: 63.28 ± 3.37^f nmol/g (w.w.) | xanthine brain concentration [2]: 9.35 ± 0.83^f nmol/g (w.w.) | β-pseudouridine brain concentration [2]: 18.62 ± 2.80^a nmol/g (w.w.)
